Biological target: Caspase 1 (CASP1) (Homo sapiens, UniProt P29466)
Experiment: live-cell GFP caspase-1
Format: cell-based

Chain of Caspase 1 (CASP1) (P29466 whole entry): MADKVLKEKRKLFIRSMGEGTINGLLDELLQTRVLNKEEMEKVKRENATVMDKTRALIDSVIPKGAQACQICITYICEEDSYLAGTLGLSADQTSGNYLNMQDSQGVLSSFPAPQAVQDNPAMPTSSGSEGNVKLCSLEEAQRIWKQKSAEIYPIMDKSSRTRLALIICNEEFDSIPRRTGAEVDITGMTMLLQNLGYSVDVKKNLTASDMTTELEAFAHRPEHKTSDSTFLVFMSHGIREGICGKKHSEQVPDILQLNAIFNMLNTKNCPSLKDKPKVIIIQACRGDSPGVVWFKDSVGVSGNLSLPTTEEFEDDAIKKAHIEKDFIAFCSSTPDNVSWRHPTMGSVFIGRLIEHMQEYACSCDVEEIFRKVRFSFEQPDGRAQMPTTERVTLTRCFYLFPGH
Chain of Caspase 1 (CASP1) (Q96P20 whole entry R262W partner): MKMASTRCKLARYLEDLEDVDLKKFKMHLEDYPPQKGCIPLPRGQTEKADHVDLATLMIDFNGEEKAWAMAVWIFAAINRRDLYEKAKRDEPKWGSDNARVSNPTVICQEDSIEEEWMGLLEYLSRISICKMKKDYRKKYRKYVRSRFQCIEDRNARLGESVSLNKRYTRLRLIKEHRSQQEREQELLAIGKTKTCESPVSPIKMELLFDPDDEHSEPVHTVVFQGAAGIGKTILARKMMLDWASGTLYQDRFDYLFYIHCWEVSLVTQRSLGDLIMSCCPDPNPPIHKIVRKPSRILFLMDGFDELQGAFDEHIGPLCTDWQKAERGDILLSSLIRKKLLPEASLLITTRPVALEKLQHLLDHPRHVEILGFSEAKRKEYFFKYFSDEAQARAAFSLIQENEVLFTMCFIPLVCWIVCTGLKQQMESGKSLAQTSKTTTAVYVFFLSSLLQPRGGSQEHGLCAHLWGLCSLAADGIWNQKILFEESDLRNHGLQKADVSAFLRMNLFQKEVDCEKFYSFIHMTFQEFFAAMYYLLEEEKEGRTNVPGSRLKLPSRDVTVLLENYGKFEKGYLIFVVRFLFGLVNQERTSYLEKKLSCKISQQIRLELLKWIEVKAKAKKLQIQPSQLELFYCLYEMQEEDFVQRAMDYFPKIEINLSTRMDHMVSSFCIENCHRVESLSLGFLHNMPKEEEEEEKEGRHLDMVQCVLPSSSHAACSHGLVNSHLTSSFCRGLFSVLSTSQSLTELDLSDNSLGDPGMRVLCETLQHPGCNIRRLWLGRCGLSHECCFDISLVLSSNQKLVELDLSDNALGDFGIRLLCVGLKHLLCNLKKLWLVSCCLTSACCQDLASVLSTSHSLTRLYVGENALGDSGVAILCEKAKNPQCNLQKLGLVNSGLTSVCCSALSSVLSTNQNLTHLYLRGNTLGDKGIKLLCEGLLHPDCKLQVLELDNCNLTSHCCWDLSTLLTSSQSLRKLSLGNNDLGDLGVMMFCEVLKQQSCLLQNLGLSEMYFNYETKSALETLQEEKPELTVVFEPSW
Chain of Caspase 1 (CASP1) (Q9ULZ3 whole entry partner): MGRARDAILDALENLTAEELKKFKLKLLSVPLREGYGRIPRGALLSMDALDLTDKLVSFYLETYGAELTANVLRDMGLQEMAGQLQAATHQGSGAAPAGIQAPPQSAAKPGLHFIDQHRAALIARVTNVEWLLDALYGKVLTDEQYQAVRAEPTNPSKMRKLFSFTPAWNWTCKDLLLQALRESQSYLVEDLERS

Structure (SMILES): CC(C)(C)[C@H](NC(=O)c1ccc(N)c(Cl)c1)C(=O)N1CCC[C@H]1C(=O)N[C@H](C=O)CC(=O)O [VRT-043198]
- IC50: 4.66 µM

Reference: article PMC8865862 (Journal of Inflammation Research, 2022)
